Earlier results, collected in patent publication US11865103B2, “Methods of treating disorders associated with glycosylation defective proteins” (CASE WESTERN RESERVE UNIVERSITY, priority 2016, dated 2024).

Test system: TgAC1; Clrn1^N48K/N48K mouse model
Settings: cited from earlier work

CC(C)(O)Cn1nc(-c2ccccc2)c2c(Cl)c(-c3ccccc3)nnc21 [BF844]
Effect on hearing loss: mitigate hearing loss
